Reference: ChEMBL document CHEMBL1201861, “Genomics of Drug Sensitity in Cancer screening data, Wellcome Trust Sanger Institute”

system: NCI-H2405; assay: cells; type: functional, cell-based; settings: Homo sapiens;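 note: growth inhibition of the human cell line, read out with a cell viability assay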
Description: SANGER: Inhibition of human NCI-H2405 cell growth in a cell viability assay.

| Compound | IC50 [µM] |
| --- | --- |
| CN(C)CCOc1ccc(-c2nc(-c3ccncc3)c(-c3ccc4c(c3)CC/C4=N\O)[nH]2)cc1 [SB590885] | > 5 |

system: EFO-27; assay: cells; type: functional, cell-based; settings: Homo sapiens;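 note: growth inhibition of EFO-27 cells, read out with a cell viability assay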
Description: SANGER: Inhibition of human EFO-27 cell growth in a cell viability assay.

| Compound | IC50 [µM] |
| --- | --- |
| CN(C)CCOc1ccc(-c2nc(-c3ccncc3)c(-c3ccc4c(c3)CC/C4=N\O)[nH]2)cc1 [SB590885] | > 5 |

system: GAMG; assay: cells; type: functional, cell-based; settings: Homo sapiens;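 note: cell growth inhibition measured by a viability assay in the GAMG human cell line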
Description: SANGER: Inhibition of human GAMG cell growth in a cell viability assay.

| Compound | IC50 [µM] |
| --- | --- |
| CN(C)CCOc1ccc(-c2nc(-c3ccncc3)c(-c3ccc4c(c3)CC/C4=N\O)[nH]2)cc1 [SB590885] | > 5 |

system: HCC1954; assay: cells; type: functional, cell-based; settings: Homo sapiens;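 note: growth inhibition of human HCC1954 cells, read out with a cell viability assay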
Description: SANGER: Inhibition of human HCC1954 cell growth in a cell viability assay.

| Compound | IC50 [µM] |
| --- | --- |
| CN(C)CCOc1ccc(-c2nc(-c3ccncc3)c(-c3ccc4c(c3)CC/C4=N\O)[nH]2)cc1 [SB590885] | > 5 |

system: HGC-27; assay: cells; type: functional, cell-based; settings: Homo sapiens;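 note: growth inhibition of human HGC-27 cells, read out in a cell viability assay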
Description: SANGER: Inhibition of human HGC-27 cell growth in a cell viability assay.

| Compound | IC50 [µM] |
| --- | --- |
| CN(C)CCOc1ccc(-c2nc(-c3ccncc3)c(-c3ccc4c(c3)CC/C4=N\O)[nH]2)cc1 [SB590885] | > 5 |

system: NCI-H522; assay: cells; type: functional, cell-based; settings: Homo sapiens;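 note: cell viability assay measuring growth inhibition of human NCI-H522 cells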
Description: SANGER: Inhibition of human NCI-H522 cell growth in a cell viability assay.

| Compound | IC50 [µM] |
| --- | --- |
| CN(C)CCOc1ccc(-c2nc(-c3ccncc3)c(-c3ccc4c(c3)CC/C4=N\O)[nH]2)cc1 [SB590885] | > 5 |

system: HLE; assay: cells; type: functional, cell-based; settings: Homo sapiens;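 note: growth inhibition of human HLE cells, read out by a cell viability assay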
Description: SANGER: Inhibition of human HLE cell growth in a cell viability assay.

| Compound | IC50 [µM] |
| --- | --- |
| CN(C)CCOc1ccc(-c2nc(-c3ccncc3)c(-c3ccc4c(c3)CC/C4=N\O)[nH]2)cc1 [SB590885] | > 5 |

system: A-427; assay: cells; type: functional, cell-based; settings: Homo sapiens;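 note: growth inhibition of human A-427 cells, read out by a cell viability assay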
Description: SANGER: Inhibition of human A427 cell growth in a cell viability assay.

| Compound | IC50 [µM] |
| --- | --- |
| CN(C)CCOc1ccc(-c2nc(-c3ccncc3)c(-c3ccc4c(c3)CC/C4=N\O)[nH]2)cc1 [SB590885] | > 5 |

system: SW626; assay: cells; type: functional, cell-based; settings: Homo sapiens;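 note: growth inhibition of SW626 cells, measured with a cell viability assay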
Description: SANGER: Inhibition of human SW626 cell growth in a cell viability assay.

| Compound | IC50 [µM] |
| --- | --- |
| CN(C)CCOc1ccc(-c2nc(-c3ccncc3)c(-c3ccc4c(c3)CC/C4=N\O)[nH]2)cc1 [SB590885] | > 5 |

system: CAMA-1; assay: cells; type: functional, cell-based; settings: Homo sapiens;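 note: growth inhibition of CAMA-1 cells, read out with a cell viability assay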
Description: SANGER: Inhibition of human CAMA-1 cell growth in a cell viability assay.

| Compound | IC50 [µM] |
| --- | --- |
| CN(C)CCOc1ccc(-c2nc(-c3ccncc3)c(-c3ccc4c(c3)CC/C4=N\O)[nH]2)cc1 [SB590885] | > 5 |

system: HuP-T3; assay: cells; type: functional, cell-based; settings: Homo sapiens;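 note: HuP-T3 cell growth inhibition, read out with a cell viability assay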
Description: SANGER: Inhibition of human HuP-T3 cell growth in a cell viability assay.

| Compound | IC50 [µM] |
| --- | --- |
| CN(C)CCOc1ccc(-c2nc(-c3ccncc3)c(-c3ccc4c(c3)CC/C4=N\O)[nH]2)cc1 [SB590885] | > 5 |

system: FaDu; assay: cells; type: functional, cell-based; settings: Homo sapiens;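 note: cell viability readout of growth inhibition in FaDu cells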
Description: SANGER: Inhibition of human FADU cell growth in a cell viability assay.

| Compound | IC50 [µM] |
| --- | --- |
| CN(C)CCOc1ccc(-c2nc(-c3ccncc3)c(-c3ccc4c(c3)CC/C4=N\O)[nH]2)cc1 [SB590885] | > 5 |

system: T-24; assay: cells; type: functional, cell-based; settings: Homo sapiens;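 note: growth inhibition of T-24 cells, read out with a cell viability assay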
Description: SANGER: Inhibition of human T-24 cell growth in a cell viability assay.

| Compound | IC50 [µM] |
| --- | --- |
| CN(C)CCOc1ccc(-c2nc(-c3ccncc3)c(-c3ccc4c(c3)CC/C4=N\O)[nH]2)cc1 [SB590885] | > 5 |

system: UO-31; assay: cells; type: functional, cell-based; settings: Homo sapiens;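 note: cell viability assay measuring inhibition of cell growth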
Description: SANGER: Inhibition of human U031 cell growth in a cell viability assay.

| Compound | IC50 [µM] |
| --- | --- |
| CN(C)CCOc1ccc(-c2nc(-c3ccncc3)c(-c3ccc4c(c3)CC/C4=N\O)[nH]2)cc1 [SB590885] | > 5 |

system: SW1990; assay: cells; type: functional, cell-based; settings: Homo sapiens;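 note: cell growth inhibition determined with a viability assay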
Description: SANGER: Inhibition of human SW1990 cell growth in a cell viability assay.

| Compound | IC50 [µM] |
| --- | --- |
| CN(C)CCOc1ccc(-c2nc(-c3ccncc3)c(-c3ccc4c(c3)CC/C4=N\O)[nH]2)cc1 [SB590885] | > 5 |

system: HCC1395; assay: cells; type: functional, cell-based; settings: Homo sapiens;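 note: growth inhibition of HCC1395 cells, read out by a cell viability assay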
Description: SANGER: Inhibition of human HCC1395 cell growth in a cell viability assay.

| Compound | IC50 [µM] |
| --- | --- |
| CN(C)CCOc1ccc(-c2nc(-c3ccncc3)c(-c3ccc4c(c3)CC/C4=N\O)[nH]2)cc1 [SB590885] | > 5 |

system: NCI-H810; assay: cells; type: functional, cell-based; settings: Homo sapiens;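 note: IC50 reflects inhibition of cancer cell line growth, read out with a cell viability assay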
Description: SANGER: Inhibition of human NCI-H810 cell growth in a cell viability assay.

| Compound | IC50 [µM] |
| --- | --- |
| CN(C)CCOc1ccc(-c2nc(-c3ccncc3)c(-c3ccc4c(c3)CC/C4=N\O)[nH]2)cc1 [SB590885] | > 5 |

system: NY; assay: cells; type: functional, cell-based; settings: Homo sapiens
Description: SANGER: Inhibition of human NY cell growth in a cell viability assay.

| Compound | IC50 [µM] |
| --- | --- |
| CN(C)CCOc1ccc(-c2nc(-c3ccncc3)c(-c3ccc4c(c3)CC/C4=N\O)[nH]2)cc1 [SB590885] | > 5 |

system: HN; assay: cells; type: functional, cell-based; settings: Homo sapiens
Description: SANGER: Inhibition of human HN cell growth in a cell viability assay.

| Compound | IC50 [µM] |
| --- | --- |
| CN(C)CCOc1ccc(-c2nc(-c3ccncc3)c(-c3ccc4c(c3)CC/C4=N\O)[nH]2)cc1 [SB590885] | > 5 |

system: C3A; assay: cells; type: functional, cell-based; settings: Homo sapiens;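 note: growth inhibition of C3A human cells, quantified with a cell viability readout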
Description: SANGER: Inhibition of human C3A cell growth in a cell viability assay.

| Compound | IC50 [µM] |
| --- | --- |
| CN(C)CCOc1ccc(-c2nc(-c3ccncc3)c(-c3ccc4c(c3)CC/C4=N\O)[nH]2)cc1 [SB590885] | > 5 |

system: HTC-C3; assay: cells; type: functional, cell-based; settings: Homo sapiens;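 note: inhibition of cell growth, read out with a cell viability assay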
Description: SANGER: Inhibition of human HTC-C3 cell growth in a cell viability assay.

| Compound | IC50 [µM] |
| --- | --- |
| CN(C)CCOc1ccc(-c2nc(-c3ccncc3)c(-c3ccc4c(c3)CC/C4=N\O)[nH]2)cc1 [SB590885] | > 5 |

system: MC-IXC; assay: cells; type: functional, cell-based; settings: Homo sapiens;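 note: growth inhibition of MC-IXC cells, read out with a cell viability assay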
Description: SANGER: Inhibition of human MC-IXC cell growth in a cell viability assay.

| Compound | IC50 [µM] |
| --- | --- |
| CN(C)CCOc1ccc(-c2nc(-c3ccncc3)c(-c3ccc4c(c3)CC/C4=N\O)[nH]2)cc1 [SB590885] | > 5 |

system: KYSE-270; assay: cells; type: functional, cell-based; settings: Homo sapiens;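 note: cell growth inhibition measured with a viability assay in the human KYSE-270 line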
Description: SANGER: Inhibition of human KYSE-270 cell growth in a cell viability assay.

| Compound | IC50 [µM] |
| --- | --- |
| CN(C)CCOc1ccc(-c2nc(-c3ccncc3)c(-c3ccc4c(c3)CC/C4=N\O)[nH]2)cc1 [SB590885] | > 5 |

system: LCLC-103H cell line; assay: cells; type: functional, cell-based; settings: Homo sapiens
Description: SANGER: Inhibition of human LCLC-103H cell growth in a cell viability assay.

| Compound | IC50 [µM] |
| --- | --- |
| CN(C)CCOc1ccc(-c2nc(-c3ccncc3)c(-c3ccc4c(c3)CC/C4=N\O)[nH]2)cc1 [SB590885] | > 5 |

system: MEL-HO; assay: cells; type: functional, cell-based; settings: Homo sapiens
Description: SANGER: Inhibition of human MEL-HO cell growth in a cell viability assay.

| Compound | IC50 [µM] |
| --- | --- |
| CN(C)CCOc1ccc(-c2nc(-c3ccncc3)c(-c3ccc4c(c3)CC/C4=N\O)[nH]2)cc1 [SB590885] | 0.0693 |

system: RD; assay: cells; type: functional, cell-based; settings: Homo sapiens
Description: SANGER: Inhibition of human RD cell growth in a cell viability assay.

| Compound | IC50 [µM] |
| --- | --- |
| CN(C)CCOc1ccc(-c2nc(-c3ccncc3)c(-c3ccc4c(c3)CC/C4=N\O)[nH]2)cc1 [SB590885] | > 5 |

system: NCI-H630; assay: cells; type: functional, cell-based; settings: Homo sapiens;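 note: growth inhibition of NCI-H630 cells, read out with a cell viability assay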
Description: SANGER: Inhibition of human NCI-H630 cell growth in a cell viability assay.

| Compound | IC50 [µM] |
| --- | --- |
| CN(C)CCOc1ccc(-c2nc(-c3ccncc3)c(-c3ccc4c(c3)CC/C4=N\O)[nH]2)cc1 [SB590885] | > 5 |

system: CAPAN-1; assay: cells; type: functional, cell-based; settings: Homo sapiens;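 note: growth suppression of CAPAN-1 cells, read out by a cell viability assay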
Description: SANGER: Inhibition of human CAPAN-1 cell growth in a cell viability assay.

| Compound | IC50 [µM] |
| --- | --- |
| CN(C)CCOc1ccc(-c2nc(-c3ccncc3)c(-c3ccc4c(c3)CC/C4=N\O)[nH]2)cc1 [SB590885] | > 5 |

system: RMG-I; assay: cells; type: functional, cell-based; settings: Homo sapiens;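 note: growth inhibition of human RMG-I cells, read out with a cell viability assay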
Description: SANGER: Inhibition of human RMG-I cell growth in a cell viability assay.

| Compound | IC50 [µM] |
| --- | --- |
| CN(C)CCOc1ccc(-c2nc(-c3ccncc3)c(-c3ccc4c(c3)CC/C4=N\O)[nH]2)cc1 [SB590885] | > 5 |

system: NCI-H1437; assay: cells; type: functional, cell-based; settings: Homo sapiens;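 note: growth inhibition of human NCI-H1437 cells, read out by a cell viability assay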
Description: SANGER: Inhibition of human NCI-H1437 cell growth in a cell viability assay.

| Compound | IC50 [µM] |
| --- | --- |
| CN(C)CCOc1ccc(-c2nc(-c3ccncc3)c(-c3ccc4c(c3)CC/C4=N\O)[nH]2)cc1 [SB590885] | > 5 |

system: HuCCT-1; assay: cells; type: functional, cell-based, HuCCT1; settings: Homo sapiens;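 note: growth inhibition of HuCCT-1 cells, read out by a cell viability assay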
Description: SANGER: Inhibition of human HuCCT1 cell growth in a cell viability assay.

| Compound | IC50 [µM] |
| --- | --- |
| CN(C)CCOc1ccc(-c2nc(-c3ccncc3)c(-c3ccc4c(c3)CC/C4=N\O)[nH]2)cc1 [SB590885] | > 5 |

system: SW1710; assay: cells; type: functional, cell-based; settings: Homo sapiens;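 note: growth inhibition of SW1710 cells, determined with a cell viability assay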
Description: SANGER: Inhibition of human SW1710 cell growth in a cell viability assay.

| Compound | IC50 [µM] |
| --- | --- |
| CN(C)CCOc1ccc(-c2nc(-c3ccncc3)c(-c3ccc4c(c3)CC/C4=N\O)[nH]2)cc1 [SB590885] | > 5 |

system: MDA-MB-157; assay: cells; type: functional, cell-based; settings: Homo sapiens
Description: SANGER: Inhibition of human MDA-MB-157 cell growth in a cell viability assay.

| Compound | IC50 [µM] |
| --- | --- |
| CN(C)CCOc1ccc(-c2nc(-c3ccncc3)c(-c3ccc4c(c3)CC/C4=N\O)[nH]2)cc1 [SB590885] | > 5 |

system: U-251; assay: cells; type: functional, cell-based; settings: Homo sapiens;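 note: growth inhibition of human U-251 cells, read out through a cell viability assay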
Description: SANGER: Inhibition of human U251 cell growth in a cell viability assay.

| Compound | IC50 [µM] |
| --- | --- |
| CN(C)CCOc1ccc(-c2nc(-c3ccncc3)c(-c3ccc4c(c3)CC/C4=N\O)[nH]2)cc1 [SB590885] | > 5 |

system: SNU-449; assay: cells; type: functional, cell-based; settings: Homo sapiens
Description: SANGER: Inhibition of human SNU-449 cell growth in a cell viability assay.

| Compound | IC50 [µM] |
| --- | --- |
| CN(C)CCOc1ccc(-c2nc(-c3ccncc3)c(-c3ccc4c(c3)CC/C4=N\O)[nH]2)cc1 [SB590885] | > 5 |

system: CAL-39; assay: cells; type: functional, cell-based; settings: Homo sapiens;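 note: cell viability assay measuring growth inhibition of CAL-39 cells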
Description: SANGER: Inhibition of human CAL-39 cell growth in a cell viability assay.

| Compound | IC50 [µM] |
| --- | --- |
| CN(C)CCOc1ccc(-c2nc(-c3ccncc3)c(-c3ccc4c(c3)CC/C4=N\O)[nH]2)cc1 [SB590885] | > 5 |

system: Calu-3; assay: cells; type: functional, cell-based; settings: Homo sapiens;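 note: growth inhibition of human Calu-3 cells, determined with a cell viability assay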
Description: SANGER: Inhibition of human Calu-3 cell growth in a cell viability assay.

| Compound | IC50 [µM] |
| --- | --- |
| CN(C)CCOc1ccc(-c2nc(-c3ccncc3)c(-c3ccc4c(c3)CC/C4=N\O)[nH]2)cc1 [SB590885] | > 5 |

system: A204; assay: cells; type: functional, cell-based; settings: Homo sapiens;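 note: growth inhibition of human A204 cells, read out with a cell viability assay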
Description: SANGER: Inhibition of human A204 cell growth in a cell viability assay.

| Compound | IC50 [µM] |
| --- | --- |
| CN(C)CCOc1ccc(-c2nc(-c3ccncc3)c(-c3ccc4c(c3)CC/C4=N\O)[nH]2)cc1 [SB590885] | > 5 |

system: SW1463; assay: cells; type: functional, cell-based; settings: Homo sapiens;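 note: growth inhibition of SW1463 cells, determined with a cell viability assay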
Description: SANGER: Inhibition of human SW1463 cell growth in a cell viability assay.

| Compound | IC50 [µM] |
| --- | --- |
| CN(C)CCOc1ccc(-c2nc(-c3ccncc3)c(-c3ccc4c(c3)CC/C4=N\O)[nH]2)cc1 [SB590885] | > 5 |

system: SW780; assay: cells; type: functional, cell-based; settings: Homo sapiens;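 note: growth inhibition of the cells, read out with a cell viability assay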
Description: SANGER: Inhibition of human SW780 cell growth in a cell viability assay.

| Compound | IC50 [µM] |
| --- | --- |
| CN(C)CCOc1ccc(-c2nc(-c3ccncc3)c(-c3ccc4c(c3)CC/C4=N\O)[nH]2)cc1 [SB590885] | > 5 |
